US8030354B2, “Substituted biphenyl GPR40 modulators” (Amgen Inc., priority 2007, dated 2011)

Target: GPR40 (Homo sapiens, UniProt O14842)
Experiment: Cell-based aequorin assay (CHO cells stably expressing GPR40 and aequorin)
Parameters: expressed in transfected cells; host or cells: CHO cells stably transfected with GPR40 and aequorin
Settings: activation of human GPR40, CHO cells, 0.01% HSA
In short: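 CHO cells stably co-expressing GPR40 and aequorin, loaded with coelenterazine (1 ug/mL, 2 h, room temperature) in H/HBSS with 20 mM Hepes and 0.01% fatty acid-free HSA. Serially diluted compounds added; luminescence recorded over 20 s. EC50 from dose-response of maximum relative light units.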

Sequence of GPR40 (O14842 whole entry): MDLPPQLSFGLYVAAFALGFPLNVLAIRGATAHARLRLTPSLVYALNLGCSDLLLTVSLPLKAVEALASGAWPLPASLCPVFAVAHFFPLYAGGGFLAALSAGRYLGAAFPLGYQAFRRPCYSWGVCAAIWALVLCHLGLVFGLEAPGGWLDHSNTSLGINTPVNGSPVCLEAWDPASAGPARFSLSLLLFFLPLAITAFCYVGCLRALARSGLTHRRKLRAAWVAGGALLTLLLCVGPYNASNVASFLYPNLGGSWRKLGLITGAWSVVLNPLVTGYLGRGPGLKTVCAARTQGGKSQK

SMILES | EC50 [nM]
CCC[C@H](CC(=O)O)c1cccc(OCc2ccc(-c3cc(OC)ccc3F)c(COCC=C(C)C)c2)c1 (single isomer, unassigned) [Example 67.27, (3R)-3-(3-(((2′-Fluoro-2-(((3-methyl-2-butenyl)oxy)methyl)-5′-(methyloxy)-1,1′-biphenyl-4-yl)methyl)oxy)phenyl)hexanoic acid or (3S)-3-(3-(((2′-fluoro-2-(((3-methyl-2-butenyl)oxy)methyl)-5′-(methyloxy)-1,1′-biphenyl-4-yl)methyl)oxy)phenyl)hexanoic acid] | 1000 to 10000
CCC=C[C@H](CC(=O)O)c1cccc(OCc2ccc(-c3cc(OC)ccc3F)c(C(C)(C)C)c2)c1 (single isomer, unassigned) [Example 75, (3S)-3-(3-(((2-(1,1-Dimethylethyl)-2′-fluoro-5′-(methyloxy)-1,1′-biphenyl-4-yl)methyl)oxy)phenyl)-4-heptenoic acid or (3R)-3-(3-(((2-(1,1-dimethylethyl)-2′-fluoro-5′-(methyloxy)-1,1′-biphenyl-4-yl)methyl)oxy)phenyl)-4-heptenoic acid] | 100 to 1000
CCC(CC(=O)O)c1cc(F)cc(OCc2ccc(-c3cc(OC)ccc3F)c(C3=CCCC3(C)C)c2)c1F (single isomer, unassigned) [Example 101.1, (3S)-3-(3-(((2-(5,5-Dimethyl-1-cyclopenten-1-yl)-2′-fluoro-5′-(methyloxy)-1,1′-biphenyl-4-yl)methyl)oxy)-2,5-difluorophenyl)pentanoic acid or (3R)-3-(3-(((2-(5,5-dimethyl-1-cyclopenten-1-yl)-2′-fluoro-5′-(methyloxy)-1,1′-biphenyl-4-yl)methyl)oxy)-2,5-difluorophenyl)pentanoic acid] | 1000 to 10000
COc1cc(-c2ccc(COc3cccc([C@@H](CC(=O)O)C4CC4)c3F)cc2[C@H](OC)C(C)(C)C)c(F)cn1 (single isomer, unassigned) [Example 83.32] | 1000 to 10000
COc1ccc(F)c(-c2ccc(COc3cccc([C@H](C)CC(=O)O)c3)cc2OC(C)C)c1 (single isomer, unassigned) [Example 31, (3R)-3-(3-(((2′-Fluoro-2-((1-methylethyl)oxy)-5′-(methyloxy)-1,1′-biphenyl-4-yl)methyl)oxy)phenyl)butanoic acid or (3S)-3-(3-(((2′-fluoro-2-((1-methylethyl)oxy)-5′-(methyloxy)-1,1′-biphenyl-4-yl)methyl)oxy)phenyl)butanoic acid] | 100 to 1000
COc1ccc(F)c(-c2ccc(COc3cccc([C@@H](CC(=O)O)C4CC4)c3)cc2[C@H](F)C(C)(C)C)c1 (single isomer, unassigned) [Example 66.30] | 100 to 1000
COc1ccc(F)c(-c2ccc(COc3cncc(CCC(=O)O)c3)cc2C(C)(C)C)c1 [Example 96, 3-(5-(((2-(1,1-Dimethylethyl)-2′-fluoro-5′-(methyloxy)-1,1′-biphenyl-4-yl)methyl)oxy)-3-pyridinyl)propanoic acid] | 1000 to 10000
CCC(CC(=O)O)c1cccc(OCc2ccc(-c3cc(OC)ccc3F)c(C3CCCC3(C)C)c2)c1 (single isomer, unassigned) [Example 78.3] | 100 to 1000
COc1ccc(F)c(-c2ccc(COc3cccc(C(C)CC(=O)O)c3)cc2/C=C/C2CCCCC2)c1 (single isomer, unassigned) [Example 64.9, (3R)-3-(3-(((2-((E)-2-Cyclohexylethenyl)-2′-fluoro-5′-(methyloxy)-1,1′-biphenyl-4-yl)methyl)oxy)phenyl)butanoic acid or (3S)-3-(3-(((2-((E)-2-cyclohexylethenyl)-2′-fluoro-5′-(methyloxy)-1,1′-biphenyl-4-yl)methyl)oxy)phenyl)butanoic acid] | 100 to 1000
COc1ccc(F)c(-c2ccc(COc3cccc(C(CC(=O)O)C4CC4)c3F)cc2C2CCCC2(C)C)c1 (single isomer, unassigned) [Example 83.17] | 100 to 1000
CCCCOc1cc(COc2cccc(C(C)CC(=O)O)c2)ccc1-c1cccc(SC)c1 (single isomer, unassigned) [Example 64.2, (3R)-3-(3-(((2-(Butyloxy)-3′-(methylsulfanyl)-1,1′-biphenyl-4-yl)methyl)oxy)phenyl)butanoic acid or (3S)-3-(3-(((2-(butyloxy)-3′-(methylsulfanyl)-1,1′-biphenyl-4-yl)methyl)oxy)phenyl)butanoic acid] | 1000 to 10000
CC1(C)CCC[C@@H]1c1cc(COc2cccc([C@@H](CC(=O)O)C3CC3)c2)ccc1-c1cc(OCC(F)(F)F)ccc1F (single isomer, unassigned) [Example 66.23] | 1000 to 10000
COc1ccc(F)c(-c2ccc(COc3cccc([C@H](CC(=O)O)C4CC4)c3F)cc2[C@H](O)C2(C)CC2)c1 (single isomer, unassigned) [Example 83.19] | 1000 to 10000
COc1ccc(F)c(-c2ccc(COc3cccc([C@@H](CC(=O)O)C4CC4)c3)cc2C(OC)C(C)(C)CO)c1 (single isomer, unassigned) [Example 66.41, (S)-3-Cyclopropyl-3-{3-[2′-fluoro-2-(3-hydroxy-1-methoxy-2,2-dimethyl-propyl)-5′-methoxy-biphenyl-4-ylmethoxy]-phenyl}-propionic acid or (R)-3-cyclopropyl-3-{3-[2′-fluoro-2-(3-hydroxy-1-methoxy-2,2-dimethyl-propyl)-5′-methoxy-biphenyl-4-ylmethoxy]-phenyl}-propionic acid] | 100 to 1000
COc1ccc(F)c(-c2ccc(COc3cccc([C@@H](CC(=O)O)CC4CC4)c3)cc2[S+]([O-])C(C)C)c1 (single isomer, unassigned) [Example 69.26, (R)-4-Cyclopropyl-3-{3-[2′-fluoro-5′-methoxy-2-(propane-2-sulfinyl)-biphenyl-4-ylmethoxy]-phenyl}-butyric acid or (S)-4-cyclopropyl-3-{3-[2′-fluoro-5′-methoxy-2-(propane-2-sulfinyl)-biphenyl-4-ylmethoxy]-phenyl}-butyric acid] | 1000 to 10000
COc1ccc(F)c(-c2cc(F)c(COc3cccc([C@@H](CC(=O)O)C4CC4)c3)cc2[C@@H]2CCCC2(C)C)c1 (single isomer, unassigned) [Example 66.45] | 100 to 1000
COc1ccc(F)c(-c2ccc(COc3cccc([C@@H](CC(=O)O)C4CC4)c3F)cc2[C@H](OC)C2(C)CC2)c1 (single isomer, unassigned) [Example 83.31] | 1000 to 10000
COc1ccc(F)c(-c2ccc(COc3cccc(CCC(=O)O)c3)cc2C2CCCC2(C)C)c1 (stereo not shown) [Example 61.1, 3-(3-(((2-(2,2-Dimethylcyclopentyl)-2′-fluoro-5′-(methyloxy)-1,1′-biphenyl-4-yl)methyl)oxy)phenyl)propanoic acid] | 100 to 1000
CCCC(CC(=O)O)c1cccc(OCc2ccc(-c3cc(OC)ccc3F)c(OCC3CCCCC3)c2)c1 (single isomer, unassigned) [Example 67.17, (3R)-3-(3-(((2-((Cyclohexylmethyl)oxy)-2′-fluoro-5′-(methyloxy)-1,1′-biphenyl-4-yl)methyl)oxy)phenyl)hexanoic acid or (3S)-3-(3-(((2-((cyclohexylmethyl)oxy)-2′-fluoro-5′-(methyloxy)-1,1′-biphenyl-4-yl)methyl)oxy)phenyl)hexanoic acid] | 100 to 1000
COc1ccc(F)c(-c2ccc(COc3cccc(C(CC(=O)O)CC4CC4)c3)cc2CN2[C@H](C)CC[C@H]2C)c1 (single isomer, unassigned) [Example 69.47, (3R)-4-Cyclopropyl-3-(3-(((2-(((2R,5R)-2,5-dimethyl-1-pyrrolidinyl)methyl)-2′-fluoro-5′-(methyloxy)-1,1′-biphenyl-4-yl)methyl)oxy)phenyl)butanoic acid or (3S)-4-cyclopropyl-3-(3-(((2-(((2R,5R)-2,5-dimethyl-1-pyrrolidinyl)methyl)-2′-fluoro-5′-(methyloxy)-1,1′-biphenyl-4-yl)methyl)oxy)phenyl)butanoic acid] | 100 to 1000
CCOCc1cc(COc2cccc(C(CC(=O)O)CC3CC3)c2)ccc1-c1cc(OC)ccc1F (single isomer, unassigned) [Example 69.37, (3R)-4-Cyclopropyl-3-(3-(((2-((ethyloxy)methyl)-2′-fluoro-5′-(methyloxy)-1,1′-biphenyl-4-yl)methyl)oxy)phenyl)butanoic acid or (3S)-4-cyclopropyl-3-(3-(((2-((ethyloxy)methyl)-2′-fluoro-5′-(methyloxy)-1,1′-biphenyl-4-yl)methyl)oxy)phenyl)butanoic acid] | 1000 to 10000
COc1ccc(F)c(-c2ccc(COc3cccc(C4(CC(=O)O)CCCCC4)c3)cc2C(C)(C)C)c1 [Example 105.2, {1-[3-(2-tert-Butyl-2′-fluoro-5′-methoxy-biphenyl-4-ylmethoxy)-phenyl]-cyclohexyl}-acetic acid] | 1000 to 10000
COc1ccc(F)c(-c2ccc(COc3cccc([C@@H](CC(=O)O)C4CC4)c3)cc2C2=CCOCC2)c1 (single isomer, unassigned) [Example 66.46, (3S)-3-Cyclopropyl-3-(3-(((2-(3,6-dihydro-2H-pyran-4-yl)-2′-fluoro-5′-(methyloxy)-1,1′-biphenyl-4-yl)methyl)oxy)phenyl)propanoic acid or (3R)-3-cyclopropyl-3-(3-(((2-(3,6-dihydro-2H-pyran-4-yl)-2′-fluoro-5′-(methyloxy)-1,1′-biphenyl-4-yl)methyl)oxy)phenyl)propanoic acid] | 1000 to 10000
CCC(CC(=O)O)c1cccc(OCc2ccc(-c3cc(OC)ccc3F)c(C3CCCC3(C)C)c2)c1 (single isomer, unassigned) [Example 98.1] | 100 to 1000
COc1ccc(F)c(-c2ccc(COc3cccc([C@@H](CC(=O)O)C(C)C)c3)cc2C(C)(C)C)c1 (single isomer, unassigned) [Example 52] | 1000 to 10000
